# Test system: IL-8 production by TNF-α in ARPE-19
# Experiment: Inhibitory effect on IL-8 production by TNF-α from retinal pigment epithelial cells
# Type: cell-based, human
# Details: all-trans form content 50 μM, 16 hours, TNF-α 4 hours, FIG. 5, n=3
# Excerpt: Age-related macular degeneration is known to involve the accumulation of drusen under the retinal pigment epithelium. Drusen attract macrophages and macrophages secrete TNF-α. TNF-α acts on the retinal pigment epithelium and its peripheral tissue, and the cells subsequently produce a variety of cytokines and cause inflammation (Mol Vis. 2008 14: 2292-303). A typical cytokine that is involved in neutrophil migration and spreads inflammation is interleukin-8 (IL-8). In this experiment, the inhibitory effect of GGA on IL-8 production by TNF-α was examined using a human-derived retinal pigment epithelial cell line, ARPE-19. […]
# After 4 hours of incubation, 150 μL of the cell culture supernatant was collected and stored at −80° C. […] Then, 100 μL of an equivalent mixture of a cell viability detection reagent Cell Titer-Glo and PBS was added to each well and the luminescence produced by the reaction with ATP in living cells was measured with a luminometer. From the measured luminescence, the cell viability was calculated by the following formula.
# Cell viability (%)=100×[(luminescence of GGA-treated group)/(luminescence of base-treated group)]
# The stored cell culture supernatant was allowed to warm to room temperature, and the IL-8 concentration was quantified with Human CXCL8/IL-8 Quantikine ELISA Kit (R&D Systems). […]
smiles,measurement,value
"CC(=O)CC/C=C(\C)CC/C=C(\C)CC/C=C(\C)CCC=C(C)C [all-trans form, (5E,9E,13E)-6,10,14,18-tetramethyl-5,9,13,17-nonadecatetrae n-2-one]",Inhibitory effect on IL-8 production compared with GGA 6:4,significant inhibitory effect on IL-8 production

# Source: patent publication US20140350119A1, “OPHTHALMIC COMPOSITION COMPRISING GERANYLGERANYLACETONE” (ROHTO PHARMACEUTICAL CO., LTD., priority 2012, published 2014)
